Source: US4482707A, “Aminoglycoside antibiotic saccharocins” (Toyo Jozo Kabushiki Kaisha, priority 1981, dated 1984)
Values after ≈ are worked out from the molar mass of the structure shown. Like-named read-outs stand apart in the source and are kept apart here.

Assays:
[1] = tested on: Saccharopolyspora sp. AC 3440; test: Resistance on antibiotics of the producing strain; assay type: cell-based
[2] = tested on: Streptococcus pyogenes N.Y.5; test: MIC by the agar dilution method; assay type: cell-based
Excerpt: (§1) The minimum inhibitory concentration (MIC) of saccharocin and 3'-oxysaccharocin by the agar dilution method are shown in Table 1.

[3] = tested on: Citrobacter freundie GN346; test: MIC by the agar dilution method; assay type: cell-based
Excerpt: as §1

[4] = tested on: Proteus morganii 0239; test: MIC by the agar dilution method; assay type: cell-based; details: Morganella morganii
Excerpt: as §1

[5] = tested on: Bacillus subtilis ATCC6633; test: MIC by the agar dilution method; assay type: cell-based
Excerpt: as §1

[6] = tested on: Pseudomonas martfiriae 1850; test: MIC by the agar dilution method; assay type: cell-based
Excerpt: as §1

[7] = tested on: Pseudomonas aeruginosa 2512; test: MIC by the agar dilution method; assay type: cell-based
Excerpt: as §1

[8] = tested on: Escherichia coli W3630; test: MIC by the agar dilution method; assay type: cell-based
Excerpt: as §1

[9] = tested on: Staphylococcus aureus ATCC 6538P; test: MIC by the agar dilution method; assay type: cell-based; details: ATCC6538P
Excerpt: as §1

[10] = tested on: Klebsiella pneumoniae ATCC 10031; test: MIC by the agar dilution method; assay type: cell-based; details: ATCC10031
Excerpt: as §1

[11] = tested on: Pseudomonas aeruginosa ML4561 RP4; test: MIC by the agar dilution method; assay type: cell-based; details: ML4561RP4
Excerpt: as §1

[12] = tested on: Escherichia coli NIHJ-JC2; test: MIC by the agar dilution method; assay type: cell-based; details: NIHJJC2
Excerpt: as §1

[13] = tested on: Shigella sonnei E33; test: MIC by the agar dilution method; assay type: cell-based
Excerpt: as §1

[14] = tested on: Proteus rettgeri ACR; test: MIC by the agar dilution method; assay type: cell-based; details: Providencia rettgeri
Excerpt: as §1

[15] = tested on: Staphylococcus epidermidis ap-al-1; test: MIC by the agar dilution method; assay type: cell-based; details: APAL1
Excerpt: as §1

[16] = tested on: Pseudomonas aeruginosa 1946; test: MIC by the agar dilution method; assay type: cell-based
Excerpt: as §1

[17] = tested on: Pseudomonas aeruginosa; test: MIC by the agar dilution method; assay type: cell-based; details: Pseudomonas aeruginosa (no strain code)
Excerpt: as §1

[18] = tested on: Staphylococcus aureus 0119; test: MIC by the agar dilution method; assay type: cell-based
Excerpt: as §1

[19] = tested on: Salmonella enteritidis gaertner; test: MIC by the agar dilution method; assay type: cell-based; details: Salmonella enterica
Excerpt: as §1

[20] = tested on: Escherichia coli W3630RGN14; test: MIC by the agar dilution method; assay type: cell-based
Excerpt: as §1

[21] = tested on: Enterobacter cloacae GN336; test: MIC by the agar dilution method; assay type: cell-based
Excerpt: as §1

[22] = tested on: Serratia marcescens; test: MIC by the agar dilution method; assay type: cell-based
Excerpt: as §1

[23] = tested on: Enterobacter aerogenes 055; test: MIC by the agar dilution method; assay type: cell-based; details: Klebsiella aerogenes
Excerpt: as §1

[24] = tested on: Staphylococcus aureus MS27; test: MIC by the agar dilution method; assay type: cell-based
Excerpt: as §1

[25] = tested on: Pseudomonas aeruginosa ML4561; test: MIC by the agar dilution method; assay type: cell-based
Excerpt: as §1

[26] = tested on: Pseudomonas aeruginosa ML4561 Rm3164-1; test: MIC by the agar dilution method; assay type: cell-based; details: ML4561RM31641
Excerpt: as §1

[27] = tested on: Pseudomonas putida 1842; test: MIC by the agar dilution method; assay type: cell-based
Excerpt: as §1

[28] = tested on: Pseudomonas aeruginosa ML4561 Rm3166; test: MIC by the agar dilution method; assay type: cell-based; details: ML4561RM3166
Excerpt: as §1

[29] = Solubility; assay type: physicochemical
[30] = 336 h, resistance of producing strain AC 3440, 37° C., 14 days, read-out: MIC
[31] = acetone, benzene, ethyl acetate
[32] = resistance of producing strain AC 3440, 37° C., 14 days

Compound `NC[C@@H]1O[C@H](O[C@H]2[C@@H](O)[C@H](O[C@@H]3[C@@H](O)[C@H](N)C[C@H](N)[C@H]3O[C@H]3O[C@H](CO)[C@@H](O)[C@H](O)[C@H]3N)O[C@@H]2CO)[C@H](N)[C@@H](O)[C@@H]1O` [Paromomycin] has an MIC [1, 30] of 50 µg/mL (≈ 81.2 µM).

For `NC[C@H]1O[C@H](O[C@H]2[C@H](O)[C@@H](O[C@H]3O[C@H](CO)[C@@H](O)[C@H](N)[C@H]3O)[C@H](N)C[C@@H]2N)[C@H](N)C[C@@H]1O` [Tobramycin], the MIC [1, 30] was > 100 µg/mL.

For `NC[C@H]1O[C@H](O[C@H]2[C@H](O)[C@@H](O[C@H]3O[C@H](CO)[C@@H](O)[C@H](N)[C@H]3O)[C@H](N)C[C@@H]2N)[C@H](O)[C@@H](O)[C@@H]1O` [Kanamycin], the MIC ([1]; 336 h) was > 100 µg/mL.

With `CNC1C(OC2OC(CO)C(O)C(O)C2O)OC2C(O)C(N)C(OC3C(N)CC(N)C(O)C3O)OC2C1O` (stereo not drawn) [3'-oxysaccharocin] the MIC [2] was 50 µg/mL (≈ 89.8 µM), the MIC [3] was 12.5 µg/mL (≈ 22.5 µM) and the MIC [4] was 12.5 µg/mL (≈ 22.5 µM). The MIC [5] was 3.1 µg/mL (≈ 5.57 µM), the MIC [6] was > 50 µg/mL and the MIC [7] was 50 µg/mL (≈ 89.8 µM). For the same compound, the MIC [8] was 3.1 µg/mL (≈ 5.57 µM), the MIC [9] was 25 µg/mL (≈ 44.9 µM) and the MIC [10] was 12.5 µg/mL (≈ 22.5 µM). The MIC [11] was 50 µg/mL (≈ 89.8 µM), the MIC [12] was 12.5 µg/mL (≈ 22.5 µM) and the MIC [13] was 25 µg/mL (≈ 44.9 µM). The MIC [14] was 12.5 µg/mL (≈ 22.5 µM), the MIC [15] was 12.5 µg/mL (≈ 22.5 µM) and the MIC [16] was > 50 µg/mL. The MIC [17] was 50 µg/mL (≈ 89.8 µM), the MIC [18] was 12.5 µg/mL (≈ 22.5 µM) and the MIC [19] was 12.5 µg/mL (≈ 22.5 µM). The MIC [20] was 12.5 µg/mL (≈ 22.5 µM), the MIC [21] was 12.6 µg/mL (≈ 22.6 µM) and the MIC [22] was 12.5 µg/mL (≈ 22.5 µM). The MIC [23] was 12.5 µg/mL (≈ 22.5 µM), the MIC [24] was 25 µg/mL (≈ 44.9 µM) and the MIC [25] was 50 µg/mL (≈ 89.8 µM). The MIC [26] was 50 µg/mL (≈ 89.8 µM), the MIC [27] was 50 µg/mL (≈ 89.8 µM) and the MIC [28] was 25 µg/mL (≈ 44.9 µM). For the same compound, the Solubility [29, 31] was “insoluble” and the Solubility ([29]; water) was “soluble”.

Work on Neomycin yielded an MIC [1, 32] of 100 µg/mL.

In the case of Gentamicin, the MIC [1, 32] is reported as > 100 µg/mL.

With `CO[C@H]1/C=C/O[C@@]2(C)Oc3c(C)c(O)c4c(O)c(c(/C=N/N5CCN(C)CC5)c(O)c4c3C2=O)NC(=O)/C(C)=C\C=C\[C@H](C)[C@H](O)[C@@H](C)[C@@H](O)[C@@H](C)[C@H](OC(C)=O)[C@@H]1C` [Rifampicin] the MIC ([1]; 336 h) was < 12.5 µg/mL.

`[H]/N=C(/N)N[C@H]1[C@H](O)[C@@H](O)[C@H](O[C@@H]2O[C@@H](C)[C@](O)(C=O)[C@H]2O[C@@H]2O[C@@H](CO)[C@H](O)[C@@H](O)[C@@H]2NC)[C@@H](N/C(N)=N\[H])[C@@H]1O` [Streptomycin] gave an MIC [1, 30] of 25 µg/mL (≈ 43 µM).

For `CNC1C(OC2OC(CO)C(O)C(O)C2O)OC2CC(N)C(OC3C(N)CC(N)C(O)C3O)OC2C1O` (stereo not drawn) [Saccharocin], the MIC [2] was 25 µg/mL (≈ 46.2 µM), the MIC [3] was 6.3 µg/mL (≈ 11.7 µM) and the MIC [4] was 6.3 µg/mL (≈ 11.7 µM). For the same compound, the MIC [5] was 0.8 µg/mL (≈ 1.48 µM), the MIC [6] was > 100 µg/mL and the MIC [7] was 50 µg/mL (≈ 92.5 µM). It also gave an MIC [8] of 1.6 µg/mL (≈ 2.96 µM), an MIC [9] of 12.5 µg/mL (≈ 23.1 µM) and an MIC [10] of 3.1 µg/mL (≈ 5.73 µM). The MIC [11] was 12.5 µg/mL (≈ 23.1 µM), the MIC [12] was 6.3 µg/mL (≈ 11.7 µM) and the MIC [13] was 6.3 µg/mL (≈ 11.7 µM). The MIC [14] was 3.1 µg/mL (≈ 5.73 µM), the MIC [15] was 6.3 µg/mL (≈ 11.7 µM) and the MIC [16] was > 100 µg/mL. For the same compound, the MIC [17] was 25 µg/mL (≈ 46.2 µM), the MIC [18] was 6.3 µg/mL (≈ 11.7 µM) and the MIC [19] was 6.3 µg/mL (≈ 11.7 µM). The MIC [20] was 3.1 µg/mL (≈ 5.73 µM), the MIC [21] was 6.3 µg/mL (≈ 11.7 µM) and the MIC [22] was 6.3 µg/mL (≈ 11.7 µM). For the same compound, the MIC [23] was 6.3 µg/mL (≈ 11.7 µM), the MIC [24] was 12.5 µg/mL (≈ 23.1 µM) and the MIC [25] was 25 µg/mL (≈ 46.2 µM). For the same compound, the MIC [26] was 25 µg/mL (≈ 46.2 µM), the MIC [27] was 25 µg/mL (≈ 46.2 µM) and the MIC [28] was 12.5 µg/mL (≈ 23.1 µM). For the same compound, the Solubility [29, 31] was “insoluble” and the Solubility ([29]; water) was “soluble”.

For `CCCC(=O)OC1C(C)OC(OC2C(C)OC(OC3C(CC=O)CC(C)C(O)C=CC=CCC(C)OC(=O)CC(O)C3OC)C(O)C2N(C)C)CC1(C)O` (stereo not drawn) [Leucomycin A5], the MIC [1, 30] was > 100 µg/mL.
